ChEMBL document CHEMBL4196127, “Discovery of AM-6226: A Potent and Orally Bioavailable GPR40 Full Agonist That Displays Efficacy in Nonhuman Primates” (ACS Med Chem Lett, 2018)
Values belong to the molecule of their own block, whether it stands above or below them.

Tests used:
[1] = biological target: T1, Free fatty acid receptor 1 (Homo sapiens, UniProt O14842); experiment: Agonist activity at GPR40 (unknown origin) expressed in CHO cells incubated for 2 hrs measured over 20 secs in presence of human serum albumin by aequorin based luminescence assay relative to AM-1638; type: functional, cell-based
[2] = biological target: T1, Free fatty acid receptor 1; experiment: Agonist activity at GPR40 (unknown origin) expressed in CHO cells incubated for 2 hrs measured over 20 secs in presence of human serum albumin by aequorin based luminescence assay; type: functional, cell-based
[3] = (§1) AUC in rat at 2 mg/kg, po; type: ADME, organism-based; conditions: in vivo
[4] = Clearance in rat at 0.5 mg/kg, iv; conditions: in vivo
Rattus norvegicus [5] = experiment: Volume of distribution at steady state in rat at 0.5 mg/kg, iv; conditions: in vivo
[6] = Half life in rat at 0.5 mg/kg, iv; type: ADME, organism-based; conditions: in vivo
[7] = Cmax in rat at 2 mg/kg, po; type: ADME, organism-based; set-up: dose 2 mg/kg, route oral; conditions: in vivo
[8] = Oral bioavailability in rat at 2 mg/kg; type: ADME, organism-based; conditions: in vivo
[9] = Fraction unbound in rat plasma at 0.5 mg/kg, iv or 2 mg/kg, po; type: ADME, organism-based
[10] = Oral bioavailability in cynomolgus monkey at 10 mg/kg; type: ADME, organism-based, Macaca fascicularis; conditions: in vivo
[11] = Clearance in cynomolgus monkey at 0.5 mg/kg, iv; conditions: in vivo
Rattus norvegicus [12] = experiment: as §1; type: ADME, organism-based; conditions: in vivo
Rattus norvegicus [13] = experiment: Clearance in rat at 0.5 mg/kg, iv; conditions: in vivo
Cynomolgus monkey [14] = experiment: Volume of distribution at steady state in cynomolgus monkey at […]; type: ADME, organism-based, Macaca fascicularis; conditions: in vivo
[15] = AUC in cynomolgus monkey at 10 mg/kg, po; type: ADME, organism-based, Macaca fascicularis; conditions: in vivo
[16] = Fraction unbound in cynomolgus monkey plasma at 0.5 mg/kg, iv; type: ADME, organism-based, Macaca fascicularis
Cynomolgus monkey [17] = experiment: Antidiabetic activity in prediabetic high fat feed cynomolgus monkey assessed as reduction in plasma glucose AUC at 10 mg/kg, po administered via gavage 2 hrs prior to glucose challenge by oral glucose tolerance test; type: functional, Macaca fascicularis; set-up: scale not given: the % may be the effect or the level left
[18] = Half life in dog at 0.5 mg/kg, iv; type: ADME, organism-based, Canis lupus familiaris; conditions: in vivo
[19] = Clearance in dog at 0.5 mg/kg, iv; conditions: in vivo
[20] = Oral bioavailability in dog at 2 mg/kg; type: ADME, organism-based, Canis lupus familiaris; conditions: in vivo
[21] = AUC in dog at 2 mg/kg, po; type: ADME, organism-based, Canis lupus familiaris; conditions: in vivo
Canis familiaris = experiment: Volume of distribution at steady state in dog at […]; type: ADME, organism-based, Canis lupus familiaris; conditions: in vivo
[22] = Half life in cynomolgus monkey at 0.5 mg/kg, iv; type: ADME, organism-based, Macaca fascicularis; conditions: in vivo
[23] = Fraction unbound in dog plasma at 0.5 mg/kg, iv; type: ADME, organism-based, Canis lupus familiaris

T1 sequence (O14842 whole entry): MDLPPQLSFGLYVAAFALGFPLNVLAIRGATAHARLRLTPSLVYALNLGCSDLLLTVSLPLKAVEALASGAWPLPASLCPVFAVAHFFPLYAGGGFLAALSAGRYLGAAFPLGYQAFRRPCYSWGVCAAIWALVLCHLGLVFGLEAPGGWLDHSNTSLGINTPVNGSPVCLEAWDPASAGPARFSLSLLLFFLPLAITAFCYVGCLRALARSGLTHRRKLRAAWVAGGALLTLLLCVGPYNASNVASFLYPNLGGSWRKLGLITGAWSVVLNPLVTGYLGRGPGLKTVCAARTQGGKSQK

SMILES: COc1ccc(F)c(-c2ccc(COc3cccc([C@@H](CC(=O)O)C4CC4)c3F)cc2[C@@H]2CCCC2(C)C)c1
Efficacy [1]: 100%
AUC [3]: 2.43 µM·h
clearance [4]: 8.17 mL/min/kg
Vdss (Rattus norvegicus [5]): 1.9 L/kg
half-life [6]: 3.3 h
Cmax [7]: 360 nM
bioavailability [8]: 32%
EC50 [2]: 100 nM
fraction unbound [9]: 0.003

SMILES: CC[C@H](CC(=O)O)c1cc(OCc2ccc(-c3cc(OC)ccc3F)c([C@@H]3CCCC3(C)C)c2)ccc1F
Efficacy [1]: 100%
EC50 [2]: 210 nM

SMILES: COc1ccc(F)c(-c2ccc(COc3cccc([C@@H](CC(=O)O)C4CC4)c3)cc2C2CCCC2(C)C)c1 (mixture of isomers)
Efficacy [1]: 97%
EC50 [2]: 140 nM

SMILES: COc1ccc(F)c(-c2ccc(COc3cccc([C@H](C)CC(=O)O)c3)cc2[C@@H]2CCCC2(C)C)c1
Efficacy [1]: 106%
EC50 [2]: 170 nM

SMILES: CC[C@H](CC(=O)O)c1cccc(OCc2ccc(-c3cc(OC)ccc3F)c([C@@H]3CCCC3(C)C)c2)c1
Efficacy [1]: 102%
AUC [3]: 1.74 µM·h
clearance [4]: 11.2 mL/min/kg
Vdss (Rattus norvegicus [5]): 1.12 L/kg
half-life [6]: 2.1 h
Cmax [7]: 370 nM
bioavailability [8]: 29%
EC50 [2]: 80 nM
fraction unbound [9]: 0.006

SMILES: COc1ccc(F)c(-c2ccc(COc3cccc([C@@H](CC(=O)O)CC4CC4)c3)cc2[C@@H]2CCCC2(C)C)c1
Efficacy [1]: 98%
EC50 [2]: 100 nM

SMILES: CCC[C@H](CC(=O)O)c1cccc(OCc2ccc(-c3cc(OC)ccc3F)c([C@@H]3CCCC3(C)C)c2)c1
Efficacy [1]: 100%
EC50 [2]: 110 nM

SMILES: CC[C@@H](CC(=O)O)c1cccc(OCc2ccc(-c3cc(OC)ccc3F)c([C@@H]3CCCC3(C)C)c2)c1
Efficacy [1]: 76%
EC50 [2]: 1960 nM

SMILES: COc1ccc(F)c(-c2ccc(COc3cccc([C@@H](CC(=O)O)C4CC4)c3)cc2[C@H]2CCCC2(C)C)c1
Efficacy [1]: 100%
EC50 [2]: 310 nM

SMILES: N[C@@H](CC(=O)N1CCn2c(nnc2C(F)(F)F)C1)Cc1cc(F)c(F)cc1F [SITAGLIPTIN]
Activity (Cynomolgus monkey [17]): 13%

SMILES: CC[C@H](CC(=O)O)c1cccc(OCc2ccc(-c3cc(OC)ccc3F)c(C3CCCC3(C)C)c2)c1F (single isomer, unassigned)
bioavailability [10]: 91%
half-life [18]: 4.1 h
Efficacy [1]: 104%
clearance [11]: 3.67 mL/min/kg
AUC [3]: 8.22 µM·h
clearance [4]: 5.5 mL/min/kg
clearance [19]: 3.5 mL/min/kg
Vdss (Rattus norvegicus [5]): 0.81 L/kg
half-life [6]: 2 h
bioavailability [20]: 62%
Vdss (Cynomolgus monkey [14]): 0.5 L/kg
Cmax [7]: 1180 nM
AUC [21]: 11.6 µM·h
Vdss (Canis familiaris): 0.68 L/kg
bioavailability [8]: 72%
EC50 [2]: 120 nM
half-life [22]: 3.3 h
fraction unbound [23]: 0.034
AUC [15]: 80.4 µM·h
Activity (Cynomolgus monkey [17]): 18%
fraction unbound [16]: 0.017
fraction unbound [9]: 0.003

Now from value to molecule:

Efficacy [1]: 89%
EC50 [2]: 1830 nM
SMILES: COc1ccc(F)c(-c2ccc(COc3cccc([C@H](CC(=O)O)C4CC4)c3)cc2[C@@H]2CCCC2(C)C)c1

Efficacy [1]: 82%
EC50 [2]: 740 nM
SMILES: CC[C@H](CC(=O)O)c1ccc(F)c(OCc2ccc(-c3cc(OC)ccc3F)c(C3=CCCC3(C)C)c2)c1

bioavailability [10]: 71%
Efficacy [1]: 100%
clearance [11]: 13.5 mL/min/kg
AUC (Rattus norvegicus [12]): 15.1 µM·h
CL (Rattus norvegicus [13]): 15.2 mL/min/kg
Vdss (Rattus norvegicus [5]): 1.1 L/kg
Vdss (Cynomolgus monkey [14]): 2 L/kg
AUC [15]: 18.8 µM·h
fraction unbound [16]: 0.012
fraction unbound [9]: 0.01
SMILES: COc1ccc(F)c(-c2ccc(COc3cccc([C@@H](CC(=O)O)C4CC4)c3)cc2C2=CCCC2(C)C)c1

Efficacy [1]: 100%
EC50 [2]: 90 nM
SMILES: COc1ccc(F)c(-c2ccc(COc3cccc([C@@H](CC(=O)O)C4CCC4)c3)cc2[C@@H]2CCCC2(C)C)c1

Efficacy [1]: 120%
EC50 [2]: 450 nM
SMILES: COc1ccc(F)c(-c2ccc(COc3cccc(CCC(=O)O)c3)cc2[C@@H]2CCCC2(C)C)c1

Efficacy [1]: 105%
EC50 [2]: 90 nM
SMILES: CC[C@H](CC(=O)O)c1cc(F)cc(OCc2ccc(-c3cc(OC)ccc3F)c([C@@H]3CCCC3(C)C)c2)c1

Efficacy [1]: 101%
AUC [3]: 1.83 µM·h
clearance [4]: 12 mL/min/kg
Vdss (Rattus norvegicus [5]): 1.68 L/kg
Cmax [7]: 250 nM
EC50 [2]: 80 nM
fraction unbound [9]: 0.006
SMILES: COc1ccc(F)c(-c2ccc(COc3cccc([C@@H](CC(=O)O)C4CC4)c3)cc2[C@@H]2CCCC2(C)C)c1
